This note sets out measurements from patent US20240190860A1, “8-CYCLO-SUBSTITUTED QUINAZOLINE DERIVATIVES AS LPA RECEPTOR 2 INHIBITORS” (CHIESI FARMACEUTICI S.p.A., priority 2021, published 2024).

The experiment addresses T1, human recombinant LPA2 expressed in CHO cells (Homo sapiens, UniProt Q9HBW0).
T1 construct: expressed in transfected cells; host or cells: CHO cells (CHO-hLPA2 cell line)
In words: FLIPR calcium mobilization assay, LPA2 antagonism in CHO-hLPA2 cells. In kind it is cell-based. As to the method:
The effectiveness of compounds of the present invention as LPA2 antagonist can be determined at the human recombinant LPA2 expressed in CHO cells, using a FLIPR assay in 384 well format.
CHO-hLPA2 cell lines are cultured in a humidified incubator at 5% C02 in DMEM/F-12 (1:1) MIXTURE with 2 mM Glutamax, supplemented with 10% of Foetal Bovine Serum, 1 mM Sodium Pyruvate, 11 mM Hepes and 1× Penicillin/Streptomycin. CHO hLPA2 cells are seeded into black walled clear-bottom 384-well plates (#781091, Greiner Bio-One GmbH) at a density of 7,500 cells per well in 50 μl culture media and grown overnight in a 37° C. humidified CO2-incubator. Serial dilutions (1:3 or 1:4, 11 points CRC) of compounds are performed in 100% DMSO at 200× the final concentration. The compounds are diluted 1:50 prior to the experiment with Assay Buffer (20 mM HEPES, 145 mM NaCl, 5 mM KCl, 5.5 mM glucose, 1 mM MgCl2 and 2 mM CaCl2, pH 7.4 containing 0.01% Pluronic F-127) to obtain a solution corresponding to […] the final concentration in the assay (4×, 2% DMSO). The final concentration of DMSO in the assay will be 0.5% in each well. Medium is removed by aspiration and cells are then incubated with 30 μl of a loading solution containing 5 μM of the cytoplasmic Ca2+ indicator Cal-520 AM in Assay Buffer containing 2.5 mM probenecid for 30 min at 37° C. incubator (cell loading). The loaded cell plates are transferred into the FLIPR instrument and calcium responses are monitored during the on-line addition protocols. For testing of compounds, after the cell loading, 10 μl/well of 4× antagonists' solution was added onto the cells. After 30 min pre-incubation (at 37° C.), 10 μl/well of 5× concentrated LPA EC80 was added and Ca2+ mobilization responses was followed during the on-line addition protocol. Intracellular peak fluorescence values subtracted by baseline fluorescence are exported and analysed to determine IC50 values, respectively. The calcium response is expressed as percentage of the maximal inhibition of the EC80 agonist response.
The raw data (peak height expressed as relative fluorescence units) are normalized and transformed into “percent of inhibition”. Curve fitting and pIC50 (−LogIC50) estimations are carried out using a four-parameter logistic model using XLfit Software.
(In general: Calcium flux is commonly read through the fluorescence of an indicator in the cells.)

The mark [1] stands for this setting: CHO-hLPA2 cells, inhibition of LPA EC80 Ca2+ response, 30 min pre-incubation, read-out: LPA2 IC50.

Where two headings read alike, the source gives them in different places.

T1 sequence (Q9HBW0 whole entry): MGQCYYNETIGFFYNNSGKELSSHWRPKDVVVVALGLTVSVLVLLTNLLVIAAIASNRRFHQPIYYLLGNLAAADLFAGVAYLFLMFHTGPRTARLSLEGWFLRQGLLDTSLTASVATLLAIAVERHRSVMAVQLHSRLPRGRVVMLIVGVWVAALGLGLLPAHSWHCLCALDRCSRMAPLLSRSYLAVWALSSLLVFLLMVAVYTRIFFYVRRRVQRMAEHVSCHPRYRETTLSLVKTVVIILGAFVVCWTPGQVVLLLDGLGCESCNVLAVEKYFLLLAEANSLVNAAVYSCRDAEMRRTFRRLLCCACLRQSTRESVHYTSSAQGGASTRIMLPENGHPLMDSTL

Broadly, the IC50 is the midpoint of a concentration-inhibition curve. As to `COC(=O)Nc1nc(C)c(S(=O)(=O)N2CCN(C[C@H](C)Nc3ncnc4c(-c5cc(C)ncn5)cccc34)CC2)s1` [Example 95, methyl N-[4-methyl-5-({4-[(2S)-2-{[8-(6-methylpyrimidin-4-yl)quinazolin-4-yl]amino}propyl]piperazin-1-yl}sulfonyl)-1,3-thiazol-2-yl]carbamate], the concentration for half-maximal inhibition (IC50) under setting [1] lay in the range of 10 to 100 nM.

For `C[C@@H](CN1CCN(S(=O)(=O)c2ccc3c(c2)CC(=O)N3)CC1)Nc1ncnc2c(-c3cccnc3)cccc12` [Example 66, 5-({4-[(2S)-2-{[8-(pyridin-3-yl)quinazolin-4-yl]amino}propyl]piperazin-1-yl}sulfonyl)-2,3-dihydro-1H-indol-2-one], under setting [1], the IC50 is 10 to 100 nM.

Regarding `COC(=O)Nc1nc(C)c(S(=O)(=O)N2CCN(C[C@H](C)Nc3ncnc4c(-c5cnn(C)c5C)cccc34)CC2)s1` [Example 64, methyl N-[5-({4-[(2S)-2-{[8-(1,5-dimethyl-1H-pyrazol-4-yl)quinazolin-4-yl]amino}propyl]piperazin-1-yl}sulfonyl)-4-methyl-1,3-thiazol-2-yl]carbamate], the IC50 under setting [1] is less than 10 nM.

Take `Cc1nc(NCCN(C)C)sc1S(=O)(=O)N1CCN(C[C@H](C)Nc2ncnc3c(-c4c(C)n[nH]c4C)cccc23)CC1` [Example 39, 8-(3,5-dimethyl-1H-pyrazol-4-yl)-N-[(2S)-1-{4-[(2-{[2-(dimethylamino)ethyl]amino}-4-methyl-1,3-thiazol-5-yl)sulfonyl]piperazin-1-yl}propan-2-yl]quinazolin-4-amine]: the IC50 under setting [1] was 10 to 100 nM.

For `COC(=O)Nc1nc(C)c(S(=O)(=O)N2CCN(C[C@H](C)Nc3ncnc4c(-c5cncc(N)c5)cccc34)CC2)s1` [Example 61, methyl N-[5-({4-[(2S)-2-{[8-(5-aminopyridin-3-yl)quinazolin-4-yl]amino}propyl]piperazin-1-yl}sulfonyl)-4-methyl-1,3-thiazol-2-yl]carbamate], the IC50 under setting [1] is less than 10 nM.

Regarding `COC(=O)Nc1nc(C)c(S(=O)(=O)N2CCN(C[C@H](C)Nc3ncnc4c(-c5cncc(CN6CCCC6)c5)cccc34)CC2)s1` [Example 25, methyl N-[4-methyl-5-({4-[(2S)-2-[(8-{5-[(pyrrolidin-1-yl)methyl]pyridin-3-yl}quinazolin-4-yl)amino]propyl]piperazin-1-yl}sulfonyl)-1,3-thiazol-2-yl]carbamate], under setting [1], the IC50 is less than 10 nM.

`COC(=O)Nc1nc(C)c(S(=O)(=O)N2CCN(C[C@H](C)Nc3ncnc4c(-c5cnn(CCN(C)C)c5)cccc34)CC2)s1` [Example 58, methyl N-[5-({4-[(2S)-2-[(8-{1-[2-(dimethylamino)ethyl]-1H-pyrazol-4-yl}quinazolin-4-yl)amino]propyl]piperazin-1-yl}sulfonyl)-4-methyl-1,3-thiazol-2-yl]carbamate]: the IC50 under setting [1] is less than 10 nM.

With `COC(=O)Nc1nc(C)c(S(=O)(=O)N2CCN(C[C@H](C)Nc3ncnc4c(-c5cccc(CN6CCN(C)CC6)c5)cccc34)CC2)s1` [Example 24, methyl N-[4-methyl-5-({4-[(2S)-2-[(8-{3-[(4-methylpiperazin-1-yl)methyl]phenyl}quinazolin-4-yl)amino]propyl]piperazin-1-yl}sulfonyl)-1,3-thiazol-2-yl]carbamate], the IC50 under setting [1] was less than 10 nM.

Regarding `Cc1nc2ccc(S(=O)(=O)N3CCN(C[C@H](C)Nc4ncnc5c(-c6cccc(CN(C)C)c6)cccc45)CC3)cc2s1` [Example 84, 8-{3-[(dimethylamino)methyl]phenyl}-N-[(2S)-1-{4-[(2-methyl-1,3-benzothiazol-6-yl)sulfonyl]piperazin-1-yl}propan-2-yl]quinazolin-4-amine], the IC50 under setting [1] is less than 10 nM.

Consider `COC(=O)Nc1nc(C)c(S(=O)(=O)N2CCN(C[C@H](C)Nc3ncnc4c(-c5c[nH]nc5C(F)(F)F)cccc34)CC2)s1` [Example 82, methyl N-[4-methyl-5-({4-[(2S)-2-({8-[3-(trifluoromethyl)-1H-pyrazol-4-yl]quinazolin-4-yl}amino)propyl]piperazin-1-yl}sulfonyl)-1,3-thiazol-2-yl]carbamate], for which the IC50 under setting [1] is less than 10 nM.

Consider `COCC(=O)Nc1ncc(S(=O)(=O)N2CCN(C[C@H](C)Nc3ncnc4c(-c5cccc(CN(C)C)c5)cccc34)CC2)s1` [Example 81, N-[5-({4-[(2S)-2-[(8-{3-[(dimethylamino)methyl]phenyl}quinazolin-4-yl)amino]propyl]piperazin-1-yl}sulfonyl)-1,3-thiazol-2-yl]-2-methoxyacetamide], for which the IC50 under setting [1] is less than 10 nM.

As for `Cc1cc(-c2ccc(S(=O)(=O)N3CCN(C[C@H](C)Nc4ncnc5c(-c6c(C)nn(C)c6C)cccc45)CC3)s2)on1` [Example 5, N-[(2S)-1-(4-{[5-(3-methyl-1,2-oxazol-5-yl)thiophen-2-yl]sulfonyl}piperazin-1-yl)propan-2-yl]-8-(1,3,5-trimethyl-1H-pyrazol-4-yl)quinazolin-4-amine], the IC50 under setting [1] was less than 10 nM.

As to `COC(=O)Nc1nc(C)c(S(=O)(=O)N2CCN(C[C@H](C)Nc3ncnc4c(-c5ccc(N(C)C)nc5)cccc34)CC2)s1` [Example 26, methyl N-[5-({4-[(2S)-2-({8-[6-(dimethylamino)pyridin-3-yl]quinazolin-4-yl}amino)propyl]piperazin-1-yl}sulfonyl)-4-methyl-1,3-thiazol-2-yl]carbamate], the half-inhibitory concentration (IC50) under setting [1] was less than 10 nM.

For `COC(=O)Nc1nc(C)c(S(=O)(=O)N2CCN(C[C@H](C)Nc3ncnc4ncccc34)CC2)s1` [comparative Example A, Methyl (S)-(4-methyl-5-((4-(2-(pyrido[2,3-d]pyrimidin-4 ylamino)propyl)piperazin-1-yl)sulfonyl)thiazol-2-yl)carbamate, reference compound], the IC50 (comparative compound, same in vitro assay, stated inactive on receptor LPA2, read-out: IC50 on LPA2 receptor) was greater than 3000 nM.

Regarding `COC(=O)Nc1nc(C)c(S(=O)(=O)N2CCN(C[C@H](C)Nc3ncnc4c(-c5c(C)noc5C)cccc34)CC2)s1` [Example 10, methyl N-[5-({4-[(2S)-2-{[8-(3,5-dimethyl-1,2-oxazol-4-yl)quinazolin-4-yl]amino}propyl]piperazin-1-yl}sulfonyl)-4-methyl-1,3-thiazol-2-yl]carbamate], the half-inhibitory concentration (IC50) under setting [1] was less than 10 nM.

For `COC(=O)Nc1nc(C)c(S(=O)(=O)N2CCN(C[C@H](C)Nc3ncnc4c(-c5ccc(C)nc5)cccc34)CC2)s1` [Example 28, methyl N-[4-methyl-5-({4-[(2S)-2-{[8-(6-methylpyridin-3-yl)quinazolin-4-yl]amino}propyl]piperazin-1-yl}sulfonyl)-1,3-thiazol-2-yl]carbamate], the IC50 under setting [1] was less than 10 nM.

Consider `C[C@@H](CN1CCN(S(=O)(=O)c2ccc(F)c(F)c2)CC1)Nc1ncnc2c(-c3cccnc3)cccc12` [Example 52, N-[(2S)-1-[4-(3,4-difluorobenzenesulfonyl)piperazin-1-yl]propan-2-yl]-8-(pyridin-3-yl)quinazolin-4-amine], for which the IC50 under setting [1] was 10 to 100 nM.

`CC(=O)N1CCc2cc(S(=O)(=O)N3CCN(C[C@H](C)Nc4ncnc5c(-c6ccc(C)nc6)cccc45)CC3)ccc21` [Example 69, 1-[5-({4-[(2S)-2-{[8-(6-methylpyridin-3-yl)quinazolin-4-yl]amino}propyl]piperazin-1-yl}sulfonyl)-2,3-dihydro-1H-indol-1-yl}ethan-1-one]: the IC50 under setting [1] is less than 10 nM.
